Each structure is given as a SMILES string.

This experiment concerns the target T1, human MT2 receptor (Homo sapiens, UniProt P49286).
T1 construct: melatonin MT1 and MT2 receptors cDNA were individually subcloned into pcDNA3 and introduced into NIH-3T3 cells using Lipofectamine; expressed in transfected cells
T1 sequence (P49286 1-362): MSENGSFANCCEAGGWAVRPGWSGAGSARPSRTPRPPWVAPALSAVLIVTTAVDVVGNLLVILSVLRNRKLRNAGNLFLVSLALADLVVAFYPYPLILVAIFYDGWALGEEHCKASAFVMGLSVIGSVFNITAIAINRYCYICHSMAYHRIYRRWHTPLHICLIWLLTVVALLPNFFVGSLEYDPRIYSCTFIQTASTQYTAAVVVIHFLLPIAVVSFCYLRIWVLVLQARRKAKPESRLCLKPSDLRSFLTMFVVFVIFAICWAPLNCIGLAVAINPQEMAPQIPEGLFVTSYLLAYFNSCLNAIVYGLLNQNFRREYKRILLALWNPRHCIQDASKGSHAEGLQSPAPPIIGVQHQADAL
Description: Melatonin receptor binding assay (MT2), 2-[125I]-iodomelatonin. The note with it: membrane homogenates of NIH-3T3 cells expressing MT2; 2-[125I]-iodomelatonin 0.2 nM; 37° C., 1 hour; read-out: MT2 IC50. Here is the method: Melatonin receptor binding assay.
Membrane homogenates: melatonin MT1 and MT2 receptors cDNA were individually subcloned into pcDNA3 and introduced into NIH-3T3 cells using Lipofectamine. […] For preparing membrane homogenates, pellets are thawed on ice, and re-suspended in TME buffer in the presence of 10 μg/ml aprotinin and leupeptin, and 100 μM phenylmethylsulfonylfluoride. The cells were then homogenized using a dounce homogenizer, and centrifuged. The resulting pellet was re-suspended with dounce homogenizer in TME (supplemented with the above protease inhibitors) and frozen. On the day of assay, a small aliquot was thawed on ice and re-suspended in the ice cold TME (1:50-1:100 v/v) and held on ice until assayed. Incubation is at 37° C. for 1 hour. Reaction is terminated by filtration. Filters were washed 3 times.
What is called IC50 is the concentration that inhibits the measured activity by half. Take `COc1ccc(C(=O)N2CCc3ccc(OC)cc3C2CCc2ccc(F)cc2)cc1` (centres unmarked) [Example 111]: the IC50 was in the range of 100 to 1000 nM. For `COc1ccc2c(c1)C(CCc1ccc(F)cc1)N(C(=O)CCl)CC2` (centres unmarked) [Example 112] the value was under 100 nM; for `COC(=O)N1CCc2ccc(OC)cc2C1CCc1ccc(F)cc1` (centres unmarked) [Example 113], under 100 nM. As for `COc1ccc2c(c1)C(CCc1ccc(F)cc1)N(C(=O)OCc1ccccc1)CC2` (centres unmarked) [Example 114], the IC50 was 100 to 1000 nM. For `CCCC(=O)N1CCc2ccc(OC)cc2C1CCc1ccc(F)cc1` (centres unmarked) [Example 115], the half-inhibitory concentration (IC50) is under 100 nM. With `COc1ccc2c(c1)C(CCc1ccc(F)cc1)N(C(=O)C1CCCC1)CC2` (centres unmarked) [Example 116], the 50% inhibitory concentration (IC50) is under 100 nM. On to `COc1ccc2c(c1)C(CCc1ccc(F)cc1)N(C(=O)c1ccno1)CC2` (centres unmarked) [Example 117], for which the IC50 is under 100 nM. `COc1ccc2c(c1)C(CCc1ccc(F)cc1)N(C(=O)COC(C)=O)CC2` (centres unmarked) [Example 118]: the IC50 fell in the range of 100 to 1000 nM.

As for `CCC(=O)N1CCc2ccc(OC)cc2C1CCc1ccc(F)cc1` (centres unmarked) [Example 119], the IC50 is under 100 nM. Take `COc1ccc2c(c1)C(CCc1ccc(F)cc1)N(C(=O)OCC(C)C)CC2` (centres unmarked) [Example 120]: the IC50 was in the range of 100 to 1000 nM.

For the compound `COc1ccc2c(c1)C(CCc1ccc(F)cc1)N(C(=O)CC(C)(C)C)CC2` (centres unmarked) [Example 121], the IC50 lay in the range of 100 to 1000 nM. For `COc1ccc2c(c1)C(CCc1ccc(F)cc1)N(C(=O)C=Cc1ccccc1)CC2` (centres unmarked) [Example 122] the value was 100 to 1000 nM; for `COC(=O)N1CCc2cc3c(cc2C1CCc1ccc(F)cc1)OCC3` (centres unmarked) [Example 129], 100 to 1000 nM; for `CC(=O)OCC(=O)N1CCc2cc3c(cc2C1CCc1ccc(F)cc1)OCC3` (centres unmarked) [Example 133], 100 to 1000 nM.

On to `CC(C)COC(=O)N1CCc2cc3c(cc2C1CCc1ccc(F)cc1)OCC3` (centres unmarked) [Example 135], for which the IC50 was 100 to 1000 nM. As for `O=C(c1ccccc1)N1CCc2cc3c(cc2C1CCc1ccc(Cl)cc1)OCO3` (centres unmarked) [Example 137], the IC50 is 100 to 1000 nM.

In the case of `CC(=O)N1CCc2cc3c(cc2C1CCc1ccc(Cl)cc1)OCO3` (centres unmarked) [Example 138], the IC50 lay within 100 to 1000 nM.

As to `O=C(C1CC1)N1CCc2cc3c(cc2C1CCc1ccc(Cl)cc1)OCO3` (centres unmarked) [Example 139], the IC50 was under 100 nM.

For the compound `COCC(=O)N1CCc2cc3c(cc2C1CCc1ccc(Cl)cc1)OCO3` (centres unmarked) [Example 140], the IC50 was under 100 nM.

As for `COc1ccc(C(=O)N2CCc3cc4c(cc3C2CCc2ccc(Cl)cc2)OCO4)cc1` (centres unmarked) [Example 141], the IC50 lay in the range of 100 to 1000 nM. `O=C(CCl)N1CCc2cc3c(cc2C1CCc1ccc(Cl)cc1)OCO3` (centres unmarked) [Example 142]: the IC50 is under 100 nM. In the case of `O=C(OCc1ccccc1)N1CCc2cc3c(cc2C1CCc1ccc(Cl)cc1)OCO3` (centres unmarked) [Example 143], the IC50 lay within 100 to 1000 nM.

As to `CCCC(=O)N1CCc2cc3c(cc2C1CCc1ccc(Cl)cc1)OCO3` (centres unmarked) [Example 144], the IC50 is under 100 nM. `O=C(c1ccno1)N1CCc2cc3c(cc2C1CCc1ccc(Cl)cc1)OCO3` (centres unmarked) [Example 145]: the IC50 lay within 100 to 1000 nM.

With `CC(=O)OCC(=O)N1CCc2cc3c(cc2C1CCc1ccc(Cl)cc1)OCO3` (centres unmarked) [Example 146], the IC50 fell in the range of 100 to 1000 nM.

Regarding `CCC(=O)N1CCc2cc3c(cc2C1CCc1ccc(Cl)cc1)OCO3` (centres unmarked) [Example 147], the IC50 is under 100 nM.

Consider `CC(C)COC(=O)N1CCc2cc3c(cc2C1CCc1ccc(Cl)cc1)OCO3` (centres unmarked) [Example 148], for which the IC50 lay in the range of 100 to 1000 nM.

For `CC(C)(C)CC(=O)N1CCc2cc3c(cc2C1CCc1ccc(Cl)cc1)OCO3` (centres unmarked) [Example 149], the IC50 was in the range of 100 to 1000 nM. As to `O=C(C=Cc1ccccc1)N1CCc2cc3c(cc2C1CCc1ccc(Cl)cc1)OCO3` (centres unmarked) [Example 150], the IC50 lay in the range of 100 to 1000 nM.
